Test results taken from PubChem BioAssay AID504901 (Southern Research Specialized Biocontainment Screening …, 2011).
Where “and” joins values, the source holds several entries; their conditions need not be identical. Equal entries are not always repeated. Calls of active or inactive are those of the source. No rule for the calls is given here.

What was measured:
[1] = Mycobacterium tuberculosis H37Rv growth inhibition, no glycerol, confirmatory dose response (AID 504901); conditions: Mycobacterium tuberculosis H37Rv growth inhibition, no glycerol; at 50 µM (top of the series)
[2] = system: Mycobacterium tuberculosis H37Rv growth inhibition, no glycerol; assay: as above; conditions: for IC50: measured here: IC50 of growth inhibition

In the case of `COc1cccc(NC(=O)CSc2nc3ccccc3c(=O)[nH]2)c1`, the inhibition [1] is reported as -14.5% (inactive).

`CCCCNC(=O)CSc1nc2ccccc2c(=O)[nH]1` gave an IC90 [2] of 1060 nM and an IC50 [2] of 320 nM.

In the case of `CCCc1cc(C(N)=S)ccn1`, the IC90 [2] is reported as 50000 nM and the IC50 [2] is reported as 8840 nM.

Compound `Cc1cccc(/C=C/C(=O)c2ccc([N+](=O)[O-])o2)c1` has an IC90 [2] of 2060 nM and an IC50 [2] of 1360 nM.

Work on `Cc1nc(SCC(=O)NC2CCCC2)[nH]c(=O)c1C` yielded an IC90 [2] of 13800 nM and an IC50 [2] of 9690 nM.

With `CN(C(=O)CSc1nc2ccccc2c(=O)[nH]1)C1CCCCC1` the inhibition [1] was -7.16% (inactive).

For `CNC(=O)CSc1nc2ccccc2c(=O)[nH]1`, the inhibition [1] was 11.7% (inactive).

With `COc1ccc(NC(=O)CSc2nc3ccccc3c(=O)[nH]2)cc1` the inhibition [1] was -9.6% (inactive).

With `NC(=O)c1cnccn1` the inhibition [1] was 1.71% (inactive).

With `COC(=O)C(Nc1nc(SCC(=O)NC2CCCCC2)nc2ccccc12)c1ccccc1` (stereo not given) the inhibition [1] was -3.62% (inactive).

With `CC1CCN(C(=O)C2CCN(c3nnc(-n4cccc4)s3)CC2)CC1` the IC90 [2] was 6400 nM and the IC50 [2] was 3290 nM.

For `Nc1cc(=O)[nH]c(SCC(=O)NC2CCCCC2)n1`, the inhibition [1] was -6.39% (inactive).

In the case of `CCSc1nc(C)c(C)c(=O)[nH]1`, the inhibition [1] is reported as -2.72% (inactive).

Work on `NC[C@H]1O[C@H](O[C@H]2[C@H](O)[C@@H](O[C@H]3O[C@H](CO)[C@@H](O)[C@H](N)[C@H]3O)[C@H](N)C[C@@H]2N)[C@H](O)[C@@H](O)[C@@H]1O` yielded an IC90 [2] of 2470 nM and an IC50 [2] of 2010 nM.

With `CO[C@H]1/C=C/O[C@@]2(C)Oc3c(C)c(O)c4c(O)c(c(C=NN5CCN(C)CC5)c(O)c4c3C2=O)NC(=O)/C(C)=C\C=C\[C@H](C)[C@H](O)[C@@H](C)[C@@H](O)[C@@H](C)[C@H](OC(C)=O)[C@@H]1C` the IC50 [2] was 10 nM.

With `NC(=O)CSc1nc2ccccc2c(=O)[nH]1` the inhibition [1] was -10.9% (inactive).

For `Cc1c[nH]c(=S)[nH]c1=O`, the inhibition [1] was -2.94% (inactive).

For `Cc1[nH]c2ccccc2c1C(=O)COC(=O)c1ccc([N+](=O)[O-])s1`, the IC90 [2] was 27600 nM and the IC50 [2] was 26400 nM.

In the case of `CC(C)N=c1cc2n(-c3ccc(Cl)cc3)c3ccccc3nc-2cc1Nc1ccc(Cl)cc1`, the IC50 [2] is reported as greater than 140 nM.

Compound `Cc1ccc(NC(=O)COC(=O)CCc2c[nH]c3ccccc23)cc1[N+](=O)[O-]` has an IC90 [2] of 7750 nM and an IC50 [2] of 2730 nM.

With `Cc1ccc(NC(=O)CSc2nc3ccccc3c(=O)[nH]2)cc1Cl` the inhibition [1] was -3.41% (inactive).

For `CC[N+](C)(CC)CCCCOc1ccc2c(c1)C(=O)c1cc(OCCCC[N+](C)(CC)CC)ccc1-2`, the IC50 [2] was 1900 nM.

`Cc1cc(Br)ccc1NC(=O)c1cnc(N2CCN(c3ccccn3)CC2)c2ccccc12` showed an IC90 [2] of 50000 nM and an IC50 [2] of 3420 nM.

For `CN(C)C(=O)CSc1nc2ccccc2c(=O)[nH]1`, the inhibition [1] was -6.71% (inactive).

For `O=C(CSc1ncccn1)NC1CCCCC1`, the inhibition [1] was -1.46% (inactive).

In the case of `CN[C@@H]1[C@H](O[C@H]2[C@H](O[C@H]3[C@H](O)[C@@H](O)[C@H](N=C(N)N)[C@@H](O)[C@@H]3N=C(N)N)O[C@@H](C)[C@]2(O)C=O)O[C@@H](CO)[C@H](O)[C@H]1O`, the IC90 [2] is reported as 220 nM and the IC50 [2] is reported as 150 nM.

Work on `CC(C)CNC(=O)CSc1nc2ccccc2c(=O)[nH]1` yielded an IC90 [2] of 790 nM and an IC50 [2] of 410 nM.

For `CCOC(=O)CSc1nc(C)c(C)c(=O)[nH]1`, the inhibition [1] was -7.41% (inactive).

For `Cc1cc(=O)[nH]c(SCC(=O)NC2CCCCC2)n1`, the inhibition [1] was -0.58% (inactive).

For `Cc1ccc(C(=O)N/N=C(/CC(=O)c2cccs2)C(F)(F)F)cc1`, the IC90 [2] was 3580 nM and the IC50 [2] was 2560 nM.

For `Cc1nc(SCc2ccccc2Cl)[nH]c(=O)c1C`, the inhibition [1] was -13.7% (inactive).

`CCOC1OC(=O)C(Cl)=C1Nc1ccccc1C` (stereo not given) showed an IC90 [2] of 5870 nM and an IC50 [2] of 3110 nM.

In the case of `O=C(CSc1nc2ccccc2c(=O)[nH]1)N1CCOCC1`, the inhibition [1] is reported as 0.57% (inactive).

`Cc1cc(C)n2nc(N)c(N=Nc3ccccc3)c2n1` gave an IC90 [2] of 5960 nM and an IC50 [2] of 4550 nM.

In the case of `O=C(CSc1nc2ccccc2c(=O)[nH]1)NCc1ccc(Cl)cc1`, the IC90 [2] is reported as 1470 nM and the IC50 [2] is reported as 1030 nM.

In the case of `COc1cccc(NC(=O)CSc2nc3c(c(=O)[nH]2)CCC3)c1`, the inhibition [1] is reported as 4.58% (inactive).

In the case of `CCC(Sc1nc2ccccc2c(=O)[nH]1)C(=O)NC1CCCCC1` (stereo not given), the inhibition [1] is reported as -7.27% (inactive).

For `Cc1nc(SCC(N)=O)[nH]c(=O)c1C`, the inhibition [1] was -0.93% (inactive).

With `O=C(CSc1nc2ccccc2c(=O)[nH]1)NC1CCCC1` the IC90 [2] was 500 nM and the IC50 [2] was 330 nM.

Work on `COc1c(N2CCNC(C)C2)c(F)cc2c(=O)c(C(=O)O)cn(C3CC3)c12` (stereo not given) yielded an IC50 [2] of 140 nM.

`Nc1c(C(=O)NC2CCCCC2)nsc1C(=O)OCC(=O)NC1CCCCC1` gave an IC90 [2] of 6830 nM and an IC50 [2] of 4100 nM.

With `CCSc1nc2ccccc2c(=O)[nH]1` the inhibition [1] was 1.1% (inactive).

Compound `CC(C)CCNC(=O)CSc1nc2ccccc2c(=O)[nH]1` has an IC90 [2] of 500 nM and an IC50 [2] of less than 140 nM.

For `O=C(CSc1nccc(=O)[nH]1)NC1CCCCC1`, the inhibition [1] was -0.32% (inactive).

Work on `Cc1nc(SCC(=O)NC2CCCCC2)[nH]c(=O)c1C` yielded an IC90 [2] of 3780 nM and an IC50 [2] of 650 nM.

In the case of `COC(=O)c1ccc(CNc2c(N3CCCC3)c(=O)c2=O)cc1`, the inhibition [1] is reported as -8.74% (inactive).

With `Cc1cc(=O)[nH]c(=S)[nH]1` the inhibition [1] was -7.95% (inactive).

With `O=c1[nH]c(=S)[nH]c2ccccc12` the inhibition [1] was -9.52% (inactive).

With `CC(Sc1nc2ccccc2c(=O)[nH]1)C(=O)NC1CCCCC1` (stereo not given) the inhibition [1] was -6.09% (inactive).

With `CN1CCC(NC(=O)CSc2nc3ccccc3c(=O)[nH]2)CC1` the inhibition [1] was -11.8% (inactive).

For `Cc1cnc(SCC(=O)NC2CCCCC2)[nH]c1=O`, the inhibition [1] was -9.54% (inactive).

With `CCC(Sc1nc2c(c(=O)[nH]1)CCC2)C(=O)Nc1cccc(OC)c1` (stereo not given) the inhibition [1] was 3.19% (inactive).

Work on `CC(C)NC(=O)CSc1nc2ccccc2c(=O)[nH]1` yielded an IC90 [2] of 14600 nM and an IC50 [2] of 9570 nM.

In the case of `CC1CCN(C(=O)CSc2nc3ccccc3c(=O)[nH]2)CC1`, the inhibition [1] is reported as -4.55% (inactive).

`CCOc1ccc(-c2cc(C)[n+](CCc3ccc(OC)c(OC)c3)c(-c3ccc(OCC)cc3)c2)cc1` showed an IC90 [2] of 1120 nM and an IC50 [2] of 710 nM.

In the case of `O=C(CSc1nc2ccccc2c(=O)[nH]1)NC1CCCCC1`, the IC90 [2] is reported as 510 nM and 80 nM.

`COC(=O)C(C)Oc1ccc(Cc2ncc(C(F)(F)F)cc2Cl)cc1` (stereo not given) gave an IC90 [2] of 5610 nM and an IC50 [2] of 3950 nM.

For `Cc1[nH]c(=S)[nH]c(=O)c1C`, the inhibition [1] was 3.12% (inactive).

For `Cc1nc(SCC(=O)N(C)c2ccccc2)[nH]c(=O)c1C`, the inhibition [1] was -3.18% (inactive).

Compound `CC(C)CCNC(=O)CSc1nc2c(c(=O)[nH]1)CCC2` has an IC90 [2] of 1720 nM and an IC50 [2] of 1400 nM.

In the case of `Cn1c(SCC(=O)NC2CCCCC2)nc2ccccc2c1=O`, the inhibition [1] is reported as -9.98% (inactive).

For `O=C(CSc1nc2c(c(=O)[nH]1)CCC2)NC1CCCCC1`, the IC90 [2] was less than 110 nM and the IC50 [2] was less than 70 nM.

With `O=C(CSc1ccccn1)NC1CCCCC1` the inhibition [1] was 3.21% (inactive).

With `CCC(Sc1nc2ccccc2c(=O)[nH]1)C(=O)Nc1cccc(OC)c1` (stereo not given) the inhibition [1] was -3.07% (inactive).

Compound `Cc1cccc(-c2oc3ccc(-c4ccc5c(c4)OCO5)cc3c2C#Cc2cncn2C)c1` has an IC90 [2] of 2960 nM and an IC50 [2] of 2360 nM.

`Cc1nc(SCC(=O)NCCC(C)C)[nH]c(=O)c1C` gave an IC90 [2] of 12800 nM and an IC50 [2] of 8990 nM.

In the case of `O=c1[nH]c(SCc2ccccc2Cl)nc2c1CCCC2`, the inhibition [1] is reported as -5.59% (inactive).

`O=C(CSc1nc2c(c(=O)[nH]1)CCCC2)NC1CCCCC1` gave an IC90 [2] of 160 nM and an IC50 [2] of 90 nM.
